Earlier results as cited in patent US20070264672A1, “DEVELOPMENT OF A NOVEL ASSAY FOR MGMT (METHYL GUANINE METHYL TRANSFERASE)” (priority 2006, published 2007).

How the values were obtained:
[1] = system: human carcinoma HT-29 cell line; conditions: combined with BCNU
MGMT = molecular target: T1, MGMT (Homo sapiens, UniProt P16455); conditions: human carcinoma HT-29 cell line, after exposure to the agent
T1 construct: endogenous in cells; host or cells: HT-29 (human carcinoma cell line)
T1 sequence (P16455 1-207): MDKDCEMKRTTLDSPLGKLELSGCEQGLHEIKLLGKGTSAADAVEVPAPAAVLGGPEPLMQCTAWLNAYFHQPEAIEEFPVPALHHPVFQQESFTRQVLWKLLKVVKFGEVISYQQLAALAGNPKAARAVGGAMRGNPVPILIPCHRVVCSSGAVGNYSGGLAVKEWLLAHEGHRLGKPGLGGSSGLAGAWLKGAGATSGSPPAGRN

Compound | effect on chemotherapy-induced cytotoxicity after depletion of MGMT (glioma cell lines) | potentiation of BCNU-induced cytotoxicity over that observed with BCNU alone [1] | duration of inhibition of MGMT activity (MGMT) [h]
Nc1nc(OCc2ccccc2)c2nc[nH]c2n1 [O^6—BG, O^6 benzylguanine] | enhanced | three logs | 48
CN(N=O)C(=O)N[C@H]1C(O)O[C@H](CO)[C@@H](O)[C@@H]1O (mixture of isomers) [streptozotocin] |  |  | 48
